Test results published in patent US6900351B2, “Aminopolycarboxylates, process for producing the same and use thereof” (Tosoh Corporation, priority 2000, dated 2005).

Assay: Chelatability (constant of calcium ion stability) test with calcium ion electrode
Format: physicochemical
Settings: 25° C., pH 10, 1 mmol/l chelating agent with equivalent 1 mmol/l calcium chloride
Method: To 1 mmol/l aqueous solution of this sodium aminopolycarboxylate, an equivalent amount of a 1 mmol/l aqueous solution of calcium chloride was added. Then the constant of calcium ion stability (pKCa^2+) was determined by measuring the calcium ion concentration at pH 10.0 by using a calcium ion electrode.
(1) Formation of Calibration Curve
By using calcium chloride, solutions having calcium concentrations of 0.1 mmol/l, 1.0 mmol/l and 10 mmol/l were prepared and the potential of each solution was measured. Based on the data thus obtained, a calibration curve of the logarithmic calcium ion concentration vs. potential was formed.
(2) Measurement of Constant of Stability
An aqueous solution (100 ml) was prepared by adding a chelating agent (1 mmol/l) and calcium chloride (1 mmol/l) at an equivalent ratio to an aqueous solution containing 0.1 mmol/l of ammonium chloride to achieve a constant ionic strength. After stirring this solution for 10 minutes, the potential of the solution at 25° C. at pH 10 was measured. Based on the calibration curve formed in (1), the calcium ion concentration corresponding to the potential thus measured was determined and the constant of stability was calculated on the assumption that the sample and calcium ion formed a complex at a ratio of 1:1.

constant of calcium ion stability (pKCa2+): 3.8
SMILES: O=C([O-])CC(NCCNC(CC(=O)[O-])C(=O)O)C(=O)[O-].[Na+].[Na+].[Na+] (stereo not shown) [trisodium N,N′-ethylenediaminedisuccinate, reference compound]
